These are literature values, as cited in paper PMC8198792, “Prediction of Anticancer Peptides with High Efficacy and Low Toxicity by Hybrid Model Based on 3D Structure of Peptides” (International Journal of Molecular Sciences, 2021).

This data set has as its system cancer cell lines. On the set-up: method as in 6 sources, ref CancerPPD [45] and SATPdb ||| ref CancerPPD/SATPdb ||| ref CancerPPD, SATPdb, Swissprot (PDB) ||| ref CancerPPD/SATPdb/Swissprot(PDB) ||| ref CancerPPD / SATPdb ||| ... As to conditions: cited from earlier work. An excerpt: Supplement ijms-22-05630-s001.zip/ACPs(seguence).xlsx, sheet "D1" | column: Activity || Supplement ijms-22-05630-s001.zip/ACPs(seguence).xlsx, sheet "D2" | column: Activity || Supplement ijms-22-05630-s001.zip/ACPs(seguence).xlsx, sheet "D3" | column: Activity || (+ 2 further places)

Setting [1] is: ACPs dataset D3 (supplement sheet "D3"), 1 = ACP, 0 = non-ACP, ref CancerPPD [45] and SATPdb.
The mark [2] stands for this setting: ACPs dataset D4 (sheet "D4"), label 1 = ACP (CancerPPD ID), 0 = non-ACP (non-anticancer AMP, SATPdb ID), ref CancerPPD [45] and SATPdb.
[3] abbreviates: ACPs dataset D5 (sheet "D5"), label 1 = ACP (positive set), 0 = non-ACP (negative set), ref CancerPPD [45] and SATPdb.
Where [4] appears, read: ACPs dataset D1, label 1 = ACP, 0 = non-ACP (non-anticancer AMPs from SATPdb), ref CancerPPD/SATPdb.
The mark [5] stands for this setting: ACPs dataset D4 (sheet "D4"), label 1 = ACP, 0 = non-ACP, ref CancerPPD / SATPdb.
Where [6] appears, read: ACPs dataset sheet D2, 1 = ACP (CancerPPD/SATPdb ID), 0 = non-ACP (Swissprot/PDB ID), ref CancerPPD, SATPdb, Swissprot (PDB).
The mark [7] stands for this setting: ACPs dataset D4 (sheet "D4"), label 1 = ACP, experimentally validated ACPs, ref CancerPPD [45] and SATPdb.
[8] abbreviates: ACPs dataset D5 (sheet "D5"), label 1 = ACP (positive set), sequences with CancerPPD/SATPdb ID, ref CancerPPD, SATPdb.
Setting [9] is: ACPs dataset D1, 1 = ACP (positive), 0 = non-ACP (negative), label taken from databases, ref CancerPPD [45] and SATPdb.
[10] abbreviates: ACPs dataset D2 (supplement ACPs(seguence).xlsx, sheet D2), dataset label 1/0 (ACP / non-ACP), entries identified by Swissprot(PDB ID), ref CancerPPD/SATPdb/Swissprot(PDB).
[11] abbreviates: ACPs dataset D3 (sheet "D3"), label 1 = ACP, 0 = non-ACP, ref CancerPPD/SATPdb.
Where [12] appears, read: ACPs dataset D5, sheet "D5", label 1 = ACP, 0 = non-ACP, ref CancerPPD [45] and SATPdb.

Like-named read-outs stand apart in the source and are kept apart here.

Turning to “THRPPMWSPVWPGGGKLlLKlLkkLLKlLKKK [compound 4603]”, the Activity reads like this: under setting [1], 1; under setting [2], 1; under setting [3], 1.
Regarding GFSPNLPGKGLRIS [satpdb13263], the Activity runs as follows: under setting [4], 0; under setting [5], 0.
On to “ENFAGGCATG YLRTADGRCK PTF [1HRL NMR - A 1-23]”, for which the Activity reads like this: under setting [3], 0; under setting [6], 0.
Regarding FAKLA [compound 1859], the Activity was 1 under setting [1], 1 under setting [7] and 1 under setting [8].
For TMPFLFCNVNDCNFASRNDYSYWL [satpdb12405], the Activity reads like this: under setting [9], 1; under setting [7], 1; under setting [8], 1; under setting [6], 1.
Consider GLFAVIKKVAAVIKKL [compound 4120], for which the Activity is recorded as 1 under setting [1], 1 under setting [2] and 1 under setting [3].
For the substance GMWSKILGKLIR [compound 3638], the Activity runs as follows: under setting [1], 1; under setting [2], 1; under setting [3], 1.
For the substance “MWKWFHNVLSWWWLLADKRPARDYNRK [compound 3074]”, the Activity is on record as 1 under setting [9], 1 under setting [7], 1 under setting [8] and 1 under setting [6].
For “APRLPQCQGDDQEKCLCNKDECPPGQCRFPRGDADPYCE [1DEC NMR - A 1-39]”, the Activity is 0 under setting [10] and 0 under setting [3].
Turning to “GTFPCGESCVFIPCLTSAIGCSCKSKVCYKN [compound 4418]”, the Activity by setting is: under setting [9], 1; under setting [7], 1; under setting [8], 1; under setting [6], 1.
Consider GKWMSLLKHILK [compound 3649], for which the Activity is, setting by setting: under setting [1], 1; under setting [2], 1; under setting [3], 1.
Take GPWERCTAQCGGGIQARRR [satpdb29089]: the Activity is, setting by setting: under setting [9], 1; under setting [7], 1; under setting [8], 1; under setting [6], 1.
Consider GLFDVIKKVASVIGGL [compound 1421], for which the Activity was 1 under setting [1], 1 under setting [2] and 1 under setting [3].
Consider DFKLFAVYIKYR [satpdb16901], for which the Activity by setting is: under setting [9], 1; under setting [7], 1; under setting [8], 1; under setting [6], 1.
On to “GKIPVKAIKKAGAAIGKGLRAINIASTAHDVYSFFKPKHKKK [satpdb13363]”, for which the Activity under setting [4] is 0 and the Activity under setting [5] is recorded as 0.
“rrrrrrrrGEDIIRNIARHAAQVGASMDR [compound 4239]”: the Activity under setting [1] is given as 1, the Activity under setting [2] is 1 and the Activity under setting [3] is 1.
With SSTSPHRPRFS [satpdb14979], the Activity reads like this: under setting [9], 1; under setting [7], 1; under setting [8], 1; under setting [6], 1.
On to GKWLSLLKHILK [compound 3661], for which the Activity is, setting by setting: under setting [1], 1; under setting [2], 1; under setting [3], 1.
For the substance “RLGDILQKAREKIEGGLKKLVQKIKDFFGKFAPRTES [satpdb11337]”, the Activity by setting is: under setting [9], 0; under setting [2], 0.
In the case of “GSSFLSPEHQLAQQRKESKKPPAKLQPR [satpdb13082]”, the Activity is recorded as 0 under setting [4] and 0 under setting [5].
On to SPPNQPSIMTFDYAKTNK [satpdb13153], for which the Activity is, setting by setting: under setting [4], 0; under setting [5], 0.
Consider GLLGPLLKIAAKVGSNLL [compound 4417], for which the Activity under setting [9] is reported as 1, the Activity under setting [7] is given as 1, the Activity under setting [8] is given as 1 and the Activity under setting [6] is on record as 1.
With PRFWEYWLRLAE [compound 4587], the Activity runs as follows: under setting [9], 1; under setting [7], 1; under setting [8], 1; under setting [6], 1.
On to “IKLSPETKDNLKKVLKGAIKGAIAVAKMV [satpdb12617]”, for which the Activity runs as follows: under setting [11], 0; under setting [5], 0; under setting [12], 0.
With TAWGPCSTTCGLGMATRV [satpdb13892], the Activity is reported as 1 under setting [9], 1 under setting [7], 1 under setting [8] and 1 under setting [6].
On to “GWIRDFGKRIERVGQHTRDATIQTIAVAQQAANVAATLKG [satpdb12541]”, for which the Activity is, setting by setting: under setting [4], 0; under setting [2], 0.
Turning to GFLSILKKVLP [satpdb11215], the Activity runs as follows: under setting [9], 0; under setting [2], 0.
KWKLFAKIGIGKFLHLAKKF [compound 1837]: the Activity reads like this: under setting [1], 1; under setting [2], 1; under setting [3], 1.
GLFAVIKKVAAVIRRL [compound 4129]: the Activity by setting is: under setting [1], 1; under setting [2], 1; under setting [3], 1.
“MPCSCKKYCDPWEVIDGSCGLFNSKYICCREK [1EWS NMR - A 1-32]”: the Activity reads like this: under setting [3], 0; under setting [6], 0.
Turning to KWCFCVCYRGICYCRCRG [satpdb12871], the Activity by setting is: under setting [4], 0; under setting [5], 0.
As for “KILRGVAKKIMRTFLRRISKDILTGKK [compound 3325]”, the Activity is 1 under setting [1], 1 under setting [2] and 1 under setting [3].
Regarding “RLYRKVYGRLYRKVYGRLYRKVYGRLYRKVYGKKK [satpdb11459]”, the Activity by setting is: under setting [1], 0; under setting [5], 0; under setting [12], 0.
For “AEDCVGRKACTREWYPVCGSDGVTYSNPCNFSAQQEQCDPNITIAHMGEC [2N71 NMR - A 1-50]”, the Activity under setting [10] is on record as 0 and the Activity under setting [3] is listed as 0.
“KWKIFKKIEHMGQNIRDGLIKAGPAVQVVGQAATIYKG [satpdb11253]”: the Activity is reported as 0 under setting [9] and 0 under setting [2].
For FLGMIPKLIKKLIKAFK [compound 3135], the Activity reads like this: under setting [1], 1; under setting [7], 1; under setting [8], 1.
As to FKRiVQRiKDFlRNLV [compound 1530], the Activity is on record as 1 under setting [1], 1 under setting [7] and 1 under setting [8].
In the case of TEWSACNVRCGRGWQKRSR [satpdb12052], the Activity reads like this: under setting [9], 1; under setting [7], 1; under setting [8], 1; under setting [6], 1.
Turning to KVKVKVKVpPTKVKVKVK [compound 3218], the Activity under setting [1] is listed as 1, the Activity under setting [2] is on record as 1 and the Activity under setting [3] was 1.
Turning to “MVEPLLDGLVLGLVFATLGGLFYAAYQQYKRPNELGG [4I7Z X-ray 2.80 G 1-37]”, the Activity by setting is: under setting [10], 0; under setting [3], 0.
Consider VOLKfPVOLfP [satpdb14846], for which the Activity under setting [11] was 0, the Activity under setting [5] is recorded as 0 and the Activity under setting [12] is 0.
Consider LTAEHYAAQATS [compound 4580], for which the Activity runs as follows: under setting [9], 1; under setting [7], 1; under setting [8], 1; under setting [6], 1.
On to “MERSTRELCLNFTVVLITVILIWLLVRSYQY [3W5A X-ray 3.01 C 1-31]”, for which the Activity is on record as 0 under setting [3] and 0 under setting [6].
“TSPQREATCTSEVSGCPKIYNPVCGTDGITYSNECVLCSENKKRQTPVLIQKSGPC [1TGS X-ray 1.80,I,1-56]”: the Activity by setting is: under setting [10], 0; under setting [12], 0.
As for “MNQGKIWTVVPPAFGLPLMLGAVAITALLVHAAVLTHTTWYAAFLQGGVKKAA [1IJD X-ray 3.00 A/C/E 1-53]”, the Activity is 0 under setting [10] and 0 under setting [12].
As to “VAKCTEESGGKYFVFCCYKPTRICYMNEQKCESTCIGK [satpdb10361]”, the Activity under setting [9] is 0 and the Activity under setting [2] is given as 0.
On to “ATCDLLSPFKVGHAACAAHCIARGKRGGWCDKRAVCNCRK [satpdb11323]”, for which the Activity is given as 0 under setting [9] and 0 under setting [2].
With GWLPTFGKILRKAMQLGPKLIQPI [satpdb12473], the Activity runs as follows: under setting [4], 0; under setting [2], 0.
